Source: patent US20130045869A1, “COMPLEXES OF HERBICIDAL CARBOXYLIC ACIDS AND AMINE-CONTAINING POLYMERS OR OLIGOMERS” (Dow AgroSciences LLC, priority 2011, published 2013)

How the values were obtained:
[1] = Relative volatility by thermo-gravimetric analysis; type: physicochemical; details: TGA at 120° C.
Description: Using a TA Instruments (New Castle, Del.) Model TGA 2050 thermo-gravimetric analyzer, a typical thermo-gravimetric analysis (TGA) is carried out by (a) weighing out 10-20 mg of the sample, (b) loading it into an aluminum or platinum holding pan, and (c) measuring and recording the mass loss of the sample over time at a constant temperature of 120° C. The volatility of the sample is obtained as the rate of mass loss per unit time when the loss rate becomes constant (reaches steady state).
Relative volatility is defined as the ratio of the volatility of a given 2,4-D or triclopyr sample over that of the corresponding 2,4-D DMA or triclopyr triethylamine salt that was arbitrarily set at 100.

Eye irritation testing = type: in vivo, New Zealand albino rabbit; details: 456 gae/L, 21 days after application, most sensitive animal; for Eye irritation score, Iris: maximum 2; for Eye irritation score, Cornea: maximum 4; for Eye irritation score, Conjunctivae: maximum 10
Description: Eye irritation testing was done according to guideline testing requirements specified in: (1) OECD Guideline for the Testing of Chemicals, Procedure 405 (2002), (2) U.S. EPA Health Effects Test Guidelines, OPPTS 870.2400 (1998), (3) JMAFF 12-Nouan-1847 (2000) and (4) Official Journal of the European Communities, Methods for the Determination of Toxicity, Part B.5 (Eye Irritation), Directive 2004/73/ED, 29 Apr. 2004.
Test material formulations were administered to New Zealand albino rabbit (1 to 3 animals per formulation) to determine the potential to produce eye irritation. The material was applied in a single dose to the conjuctival sac of one eye of each animal. The other eye remained untreated and served as a control. Irritation of the cornea, iris and conjunctivae were evaluated 21 days after application of the test material.
The results are reported as irritation present in the cornea, iris and conjunctivae in the most sensitive animal 21 days after application. Testing was conducted with the following concentrates: (1) 2,4-D PEI complex (Lupasol® G20 complex, 456 grams acid equivalent per liter (gae/l)), (2) 2,4-D DMA (dimethyl ammonium salt, 456 gae/l), (3) 2,4-D DMEA (dimethylethyl ammonium salt, 456 gae/l), (4) 2,4-D IPA (isopropyl ammonium salt, 456 gae/l), and (5) 2,4-D TIPA (triisopropanol ammonium salt, 456 gae/l).

[2] = ratio to 2,4-D DMA salt set at 100
[3] = ratio to triclopyr triethylamine salt set at 100

Row | SMILES | Relative volatility [1, 2] | Eye irritation score, Iris (Eye irritation testing) | Eye irritation score, Cornea (Eye irritation testing) | Eye irritation score, Conjunctivae (Eye irritation testing) | Relative volatility [1, 3]
1 | CNC.O=C(O)COc1ccc(Cl)cc1Cl [2,4-D DMA salt, 2,4-D dimethylamine (DMA) salt] | 100 | 1 | 3 | 3 | –
2 | CC(C)N.O=C(O)COc1ccc(Cl)cc1Cl [2,4-D IPA] | – | 0 | 4 | 6 | –
3 | CC(O)CN(CC(C)O)CC(C)O.O=C(O)COc1ccc(Cl)cc1Cl (stereo not drawn) [2,4-D TIPA] | – | 0 | 3 | 1 | –
4 | O=C(O)COc1ccc(Cl)cc1Cl [2,4-D acid tech, 2,4-dichlorophenoxyacetic acid] | 249 | – | – | – | –
5 | CCCCC(CC)COC(=O)COc1ccc(Cl)cc1Cl (stereo not drawn) [2,4-D ethylhexyl ester] | 1201 | – | – | – | –
6 | O=C(O)COc1nc(Cl)c(Cl)cc1Cl [triclopyr acid] | – | – | – | – | 135
7 | CCCCOCCOC(=O)COc1nc(Cl)c(Cl)cc1Cl [triclopyr butoxyethyl ester] | – | – | – | – | 302
8 | CCN(CC)CC.O=C(O)COc1nc(Cl)c(Cl)cc1Cl [triclopyr triethylamine salt] | – | – | – | – | 100
